Source: the NIST ThermoML archive (doi:10.1016/j.jct.2019.02.011)

Experiments:
[1] = Liquid, Vibrating tube method
[2] = xn = mol fraction of the nth substance listed; settings: Liquid, Vibrating tube method, x2 = 0

COC(=O)OC [dimethyl carbonate]
mass density [kg/m3], [1]
Settings	100 kPa	5000 kPa	10000 kPa	15000 kPa	20000 kPa	25000 kPa	30000 kPa	35000 kPa	40000 kPa
288.15 K	1076.83	1081.15	1085.32	1089.52	1093.35	1096.99	1100.63	1104.08	1107.4
293.15 K	1070.06	1074.62	1078.93	1083.01	1087.08	1091.03	1094.75	1098.34	1101.84
298.15 K	1063.45	1068	1072.51	1076.72	1080.9	1084.89	1088.82	1092.44	1096.04
303.15 K	1056.61	1061.47	1066.02	1070.49	1074.79	1078.99	1082.9	1086.6	1090.4
308.15 K	1049.91	1054.84	1059.69	1064.3	1068.73	1073	1077.1	1080.78	1084.38

CO [methanol] + COC(=O)OC
mass density [kg/m3], [2]
Settings	100 kPa	5000 kPa	10000 kPa	15000 kPa	20000 kPa	25000 kPa	30000 kPa	35000 kPa	40000 kPa
288.15 K	796.19	800.57	804.93	808.85	812.92	816.56	820.09	823.62	827.04
293.15 K	791.18	795.97	800.47	804.52	808.43	812.34	815.93	819.32	822.48
298.15 K	786.76	791.52	795.8	800.13	804.18	808.04	811.69	815.2	818.33
303.15 K	782.07	786.79	791.31	795.85	800.16	804.08	807.78	811.31	814.7
308.15 K	777.09	781.85	786.63	791.23	795.58	799.85	803.73	807.42	811.08

CCCO [propan-1-ol] + COC(=O)OC
mass density [kg/m3], [2]
Settings	100 kPa	5000 kPa	10000 kPa	15000 kPa	20000 kPa	25000 kPa	30000 kPa	35000 kPa	40000 kPa
288.15 K	807.62	811.32	814.7	817.95	821.27	824.24	827.24	830.04	832.73
293.15 K	803.57	807.24	810.8	814.22	817.46	820.74	823.7	826.5	829.09
298.15 K	799.61	803.49	807.15	810.5	813.78	816.92	820.04	822.87	825.81
303.15 K	795.62	799.57	803.13	806.69	810.14	813.48	816.64	819.75	822.6
308.15 K	791.31	795.4	799.21	802.79	806.37	809.72	813.03	816.12	819.06

CCO [ethanol] + COC(=O)OC
mass density [kg/m3], [2]
Settings	100 kPa	5000 kPa	10000 kPa	15000 kPa	20000 kPa	25000 kPa	30000 kPa	35000 kPa	40000 kPa
288.15 K	794.39	798.18	802.2	806.02	809.69	812.95	816.23	819.12	822.29
293.15 K	789.87	793.83	797.88	801.84	805.45	809.12	812.52	815.8	818.81
298.15 K	785.59	789.72	793.76	797.75	801.4	805.07	808.47	811.58	815.03
303.15 K	781.19	785.47	789.66	793.71	797.54	801.26	804.81	808.29	811.43
308.15 K	776.6	780.98	785.42	789.62	793.63	797.42	801.06	804.6	808.06

CO [methanol]
mass density [kg/m3], [1]
Settings	100 kPa	5000 kPa	10000 kPa	15000 kPa	20000 kPa	25000 kPa	30000 kPa	35000 kPa	40000 kPa
288.15 K	796.19	800.57	804.93	808.85	812.92	816.56	820.09	823.62	827.04
293.15 K	791.18	795.97	800.47	804.52	808.43	812.34	815.93	819.32	822.48
298.15 K	786.76	791.52	795.8	800.13	804.18	808.04	811.69	815.2	818.33
303.15 K	782.07	786.79	791.31	795.85	800.16	804.08	807.78	811.31	814.7
308.15 K	777.09	781.85	786.63	791.23	795.58	799.85	803.73	807.42	811.08

CCCO [propan-1-ol]
mass density [kg/m3], [1]
Settings	100 kPa	5000 kPa	10000 kPa	15000 kPa	20000 kPa	25000 kPa	30000 kPa	35000 kPa	40000 kPa
288.15 K	807.62	811.32	814.7	817.95	821.27	824.24	827.24	830.04	832.73
293.15 K	803.57	807.24	810.8	814.22	817.46	820.74	823.7	826.5	829.09
298.15 K	799.61	803.49	807.15	810.5	813.78	816.92	820.04	822.87	825.81
303.15 K	795.62	799.57	803.13	806.69	810.14	813.48	816.64	819.75	822.6
308.15 K	791.31	795.4	799.21	802.79	806.37	809.72	813.03	816.12	819.06

CCO [ethanol]
mass density [kg/m3], [1]
Settings	100 kPa	5000 kPa	10000 kPa	15000 kPa	20000 kPa	25000 kPa	30000 kPa	35000 kPa	40000 kPa
288.15 K	794.39	798.18	802.2	806.02	809.69	812.95	816.23	819.12	822.29
293.15 K	789.87	793.83	797.88	801.84	805.45	809.12	812.52	815.8	818.81
298.15 K	785.59	789.72	793.76	797.75	801.4	805.07	808.47	811.58	815.03
303.15 K	781.19	785.47	789.66	793.71	797.54	801.26	804.81	808.29	811.43
308.15 K	776.6	780.98	785.42	789.62	793.63	797.42	801.06	804.6	808.06
